Measurements as given in US7468457B2, “Ligand inhibitors of the RAR receptors, process for preparing same and therapeutic/cosmetic applications thereof” (Galderma Research & Development, priority 2002, dated 2008).
pIC50, pKd: −log10 of the molar value.

Key:
Assay type in all cases: cell-based
[1] = molecular target: T1, RAR BETA (Homo sapiens, UniProt P10826); test: Transactivation test (luciferase reporter, HeLa stable transfectants), RAR beta; details: HeLa cells; for pKd: apparent Kd from Schild regression of crossed curves against reference agonist, read-out: RAR BETA Kd app; for pIC50: inhibition at the reference agonist concentration that gives 80% activation
T1 sequence (P10826 183-455 limits assumed): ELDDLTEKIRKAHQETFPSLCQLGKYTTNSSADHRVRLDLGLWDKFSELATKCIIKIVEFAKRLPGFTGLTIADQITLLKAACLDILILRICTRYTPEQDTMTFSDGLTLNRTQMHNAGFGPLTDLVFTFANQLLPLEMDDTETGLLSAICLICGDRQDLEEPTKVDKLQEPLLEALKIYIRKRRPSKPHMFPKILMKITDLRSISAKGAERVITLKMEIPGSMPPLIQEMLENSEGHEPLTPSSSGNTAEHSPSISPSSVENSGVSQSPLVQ
Method: (§1) The activation of receptors with an agonist (activator) in HeLa cells leads to the expression of a reporter gene, luciferase, which, in the presence of a substrate, generates light. The activation of the receptors may thus be measured by quantifying the luminescence produced after incubating the cells in the presence of a reference agonist. The inhibitory products displace the agonist from its site, thus preventing activation of the receptor. The activity is measured by quantifying the reduction in light produced. This measurement makes it possible to determine the inhibitory activity of the compounds according to the invention.
(§2) Determination of the Kdapp:
(§3) In this study, a constant is determined which represents the affinity of the molecule for the receptor. Since this value can fluctuate depending on the basal activity and the expression of the receptor, it is referred to as the Kd apparent (KdApp).
(§4) To determine this constant, “crossed curves” of the test product against a reference agonist, 4-[2-(5,5,8,8-tetramethyl-5,6,7,8-tetrahydro-2-naphthyl)propenyl]benzoic acid, are performed in 96-well plates. The test product is used at 10 concentrations and the reference agonist at 7 concentrations. In each well, the cells are in contact with a concentration of the test product and a concentration of the reference agonist, 4-[2-(5,5,8,8-tetramethyl-5,6,7,8-tetrahydro-2-naphthyl)propenyl]benzoic acid. Measurements are also taken for the total agonist (4-[2-(5,5,8,8-tetramethyl-5,6,7,8-tetrahydro-2-naphthyl)propenyl]benzoic acid) and inverse agonist, 4-{(E)-3-[4-(4-tert-butylphenyl)-5,5,8,8-tetramethyl-5,6,7,8-tetrahydro-2-naphthyl]-3-oxopropenyl}benzoic acid, controls.
(§5) These crossed curves make it possible to determine the AC50 values (concentration at which 50% activation is observed) for the reference ligand at various concentrations of test product. These AC50 values are used to calculate the Schild regression by plotting a straight line corresponding to the Schild equation (“quantition in receptor pharmacology” Terry P. Kenakin, Receptors and Channels, 2001,7,371-385).
(§6) In the case of an antagonist, an IC50 value (concentration that inhibits 50% of the activity) is calculated by plotting the curve of the product at the concentration of the reference ligand that gives 80% activation.
(§7) The HeLa cell lines used are stable transfectants containing the plasmids ERE-βGlob-Luc-SV-Neo (reporter gene) and RAR (α, β, γ) ER-DBD-puro. These cells are inoculated into 96-well plates at a rate of 10 000 cells per well in 100 μl of DMEM medium without phenol red, and supplemented with 10% defatted calf serum. The plates are then incubated at 37° C. and 7% CO2 for 4 hours.
(§8) The various dilutions of the test products, of the reference ligand (4-[2-(5,5,8,8-tetramethyl-5,6,7,8-tetrahydro-2-naphthyl)propenyl]benzoic acid), of the 100% control (100 nM 4-[2-(5,5,8,8-tetramethyl-5,6,7,8-tetrahydro-2-naphthyl)propenyl]benzoic acid) and of the 0% control (500 nM 4-{(E)-3-[4-(4-tert-butylphenyl)-5,5,8,8-tetramethyl-5,6,7,8-tetrahydro-2-naphthyl]-3-oxopropenyl}benzoic acid) are added at a rate of 5 μl per well. The plates are then incubated for 18 hours at 37° C. and 7% CO2.
(§9) The culture medium is removed by turning over and 100 μl of a 1:1 PBS/luciferine mixture is added to each well. After 5 minutes, the plates are read using the luminescence detector.

[2] = molecular target: T2, RAR GAMMA (Homo sapiens, UniProt P13631); test: Transactivation test (luciferase reporter, HeLa stable transfectants), RAR gamma; details: HeLa cells; for pKd: apparent Kd from Schild regression of crossed curves against reference agonist, read-out: RAR GAMMA Kd app; for pIC50: inhibition at the reference agonist concentration that gives 80% activation
T2 sequence (P13631 185-454 limits assumed): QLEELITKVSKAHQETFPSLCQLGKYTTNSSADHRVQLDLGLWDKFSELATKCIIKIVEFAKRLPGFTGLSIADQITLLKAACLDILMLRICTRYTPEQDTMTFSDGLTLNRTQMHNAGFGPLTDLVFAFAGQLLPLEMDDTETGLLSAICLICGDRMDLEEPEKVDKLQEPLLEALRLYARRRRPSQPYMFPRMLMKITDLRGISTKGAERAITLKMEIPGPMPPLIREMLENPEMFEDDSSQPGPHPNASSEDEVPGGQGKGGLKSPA
Method: as §1, §2, §3, §4, §5, §6, §7, §8, §9

[3] = molecular target: T3, RAR ALPHA (Homo sapiens, UniProt P10276); test: Transactivation test (luciferase reporter, HeLa stable transfectants), RAR alpha; details: HeLa cells; for pKd: apparent Kd from Schild regression of crossed curves against reference agonist, read-out: RAR ALPHA Kd app; for pIC50: inhibition at the reference agonist concentration that gives 80% activation
T3 sequence (P10276 183-417 limits assumed): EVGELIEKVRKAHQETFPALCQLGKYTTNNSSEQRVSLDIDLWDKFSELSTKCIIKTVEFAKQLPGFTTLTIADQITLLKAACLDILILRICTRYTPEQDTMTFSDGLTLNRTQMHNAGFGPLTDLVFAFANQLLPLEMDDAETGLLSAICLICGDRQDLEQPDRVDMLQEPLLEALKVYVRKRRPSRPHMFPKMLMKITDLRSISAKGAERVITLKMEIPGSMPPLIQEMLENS
Method: as §1, §2, §3, §4, §5, §6, §7, §8, §9

| Structure (SMILES) | pKd [1] | pIC50 [1] | pKd [2] | pIC50 [2] | pKd [3] | pIC50 [3] |
| --- | --- | --- | --- | --- | --- | --- |
| Cc1ccc(-c2cc(C(O)/C=C/c3ccc(C(=O)O)cc3)cc3c2C(C)(C)CCC3(C)C)cc1 (stereo not drawn) [Ex. 9, 4-[(E)-3-Hydroxy-3-(5,5,8,8-tetramethyl-4-p-tolyl-5,6,7,8-tetrahydro-2-naphthyl)propenyl]benzoic Acid] | 6.30 | 6.10 | 7.52 | 7.12 | 6.60 | 6.36 |
| CC(C)(C)c1ccc(-c2cc(C(=O)/C=C/c3ccc(C(=O)O)cc3)cc3c2C(C)(C)CCC3(C)C)cc1 [Ex. 8, 4-{(E)-3-[4-(4-tert-Butylphenyl)-5,5,8,8-tetramethyl-5,6,7,8-tetrahydro-2-naphthyl]-3-oxopropenyl}benzoic Acid] | 8.40 | 8.19 | 9.60 | 9.20 | 8.70 | 8.46 |
| Cc1ccc(-c2cc(C(=O)/C=C/c3ccc(C(=O)O)cc3)cc3c2C(C)(C)CCC3(C)C)cc1 [Ex. 7] | 9.60 | 9.40 | 9.00 | 8.60 | 9.00 | 8.76 |
| Cc1ccc(-c2cc(C(O)C#Cc3ccc(C(=O)O)cc3)cc3c2C(C)(C)CCC3(C)C)cc1 (stereo not drawn) [Ex. 5, 4-[3-Hydroxy-3-(5,5,8,8-tetramethyl-4-p-tolyl-5,6,7,8-tetrahydro-2-naphthyl)-1-propynyl]benzoic Acid] | 7.22 | 7.02 | 7.82 | 7.43 | 5.40 | 5.15 |
